According to paper PMC10591299, “Targeting SHP2 with an Active Site Inhibitor Blocks Signaling and Breast Cancer Cell Phenotypes” (ACS Bio & Med Chem Au, 2023):

Experiments:
FL-SHP2 = molecular target: T1, FL-SHP2 (Homo sapiens, UniProt Q06124); assay: PTPase assay on FLAG-tagged full-length SHP2 immunoprecipitated from MDA-MB468 cells; assay type: biochemical; details: FLAG-tagged FL-SHP2 on beads from MDA-MB468 cells, 20 μM DiFMUP
T1 construct: whether CNBCA is also effective against full-length SHP2 (FL-SHP2); expressed in transfected cells; host or cells: MDA-MB468
T1 sequence (Q06124 1-593): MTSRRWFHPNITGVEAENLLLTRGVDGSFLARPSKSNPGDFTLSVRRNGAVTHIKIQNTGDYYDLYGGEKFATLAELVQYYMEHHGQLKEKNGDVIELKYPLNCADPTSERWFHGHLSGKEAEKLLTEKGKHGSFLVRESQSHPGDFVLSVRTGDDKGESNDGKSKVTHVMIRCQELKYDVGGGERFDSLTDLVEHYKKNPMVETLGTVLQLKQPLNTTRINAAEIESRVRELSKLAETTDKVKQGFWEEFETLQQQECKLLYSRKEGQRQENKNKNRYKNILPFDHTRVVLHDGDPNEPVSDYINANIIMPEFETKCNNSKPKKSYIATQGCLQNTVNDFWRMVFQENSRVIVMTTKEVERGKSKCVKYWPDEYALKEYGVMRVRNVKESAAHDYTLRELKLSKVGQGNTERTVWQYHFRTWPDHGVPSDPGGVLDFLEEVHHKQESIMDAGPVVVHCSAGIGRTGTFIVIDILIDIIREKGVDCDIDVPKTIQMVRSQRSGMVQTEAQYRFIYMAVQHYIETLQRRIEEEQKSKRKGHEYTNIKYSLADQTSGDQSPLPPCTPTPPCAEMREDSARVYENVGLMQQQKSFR
Excerpt: To confirm efficiency of the expression, we conducted IB analysis of total protein extracts (TPE) prepared from the noncancerous MEF cells (mouse embryo fibroblasts), the MDA-MB468 BC cells that overexpress EGFR, and the BT474 BC cells that overexpress HER2. […] We also performed HER2 and EGFR IB analyses, which confirmed overexpression of these RTKs in the BC cells, but not in the MEF cells. […] Next, FL-SHP2 was immunoprecipitated (IP) with anti-FLAG antibody from the TPEs of the three cells (Figure 3F) and used for determining the activation state while still bound to protein-A sepharose beads, as described in the materials and methods. […] We thus used SHP2 expressed in BC cells to test the inhibitory effect of CNBCA on FL-SHP2. […]
For determining the inhibitory effect of CNBCA on FL-SHP2, a FLAG-tagged protein ectopically expressed in the EGFR overexpressing MDA-MB468 cells[8],[15] was used as an enzyme. […] After 20 min of incubation at 37 °C, 100 μL of the supernatant from each sample was transferred to 96-well plates, and fluorescence intensity measure as above, using the Synergy 4 plate reader. The resulting data was then analyzed with the Graphpad Prism software to draw the graph and determine the IC50 value.

SHP2 = molecular target: T2, SHP2 (Homo sapiens, UniProt Q06124); assay: Cellular thermal shift assay (CETSA), SHP2 immunoblot; assay type: binding; details: 100 μM CNBCA, cell lysate
T2 construct: endogenous in cells
T2 sequence (Q06124 1-593): T1 sequence (Q06124 1-593)
Excerpt: First, we used the cellular thermal shift assay (CETSA) to show whether CNBCA binds to endogenous full-length SHP2 under cellular contexts. The CETSA assay is based on the principle that specific inhibitors bind to a target protein and confer relative stability from heat-induced denaturation and precipitation when compared to a nontarget protein present in the same milieu.[34] Accordingly, we performed CETSA to test the effect of CNBCA on the SHP2 protein stability and compared it with the nontarget PTP1B protein as described in the materials and methods.
After heat treatment, supernatants were analyzed by immunoblotting (IB) for SHP2 and the nontarget phosphatase PTP1B. […] To provide semiquantitative data, band densities of both SHP2 and PTP1B were measured and presented as bar graph. […] On the other hand, the nontarget protein PTP1B was reduced to approximately 50% at 49 °C, to 25% at 55 °C, and to less than 10% at 58 °C (Figure 3B and D).
For the CETSA study, total protein extracts (TPE) prepared from two breast cancer cells, the triple-negative MDA-MB468 and the HER2-positive JIMT-1 cells, were used. Briefly, TPE from the two cell lines were cleared by centrifugation, mixed with CNBCA at 100 μM concentration (the maximum amount used in the IC50 studies), and incubated for 10 min at room temperature to allow binding. The mixture was then divided into 100 μL aliquots, treated with heat for 10 min at different temperatures, ranging from 37 to 64 °C that differ by 3 °C intervals, cooled on ice for 10 min, centrifuged at 20,000g for 20 min to remove precipitated proteins, and the supernatants analyzed by immunoblotting (IB) for SHP2 and the nontarget PTP, PTP1B. Aliquots that were mixed with CNBCA, but not treated with heat were used as positive controls for comparison.

CCCCCCCCCOc1ccc(-c2ccc(C(=O)O)cc2)cc1CCCC(=O)O [CNBCA, 3′-(3-carboxypropyl)-4′-(nonyloxy)-[1,1′-biphenyl]-4-carboxylic acid]
IC50 (FL-SHP2): 0.615 µM
SHP2 stabilized in solution (band density) (SHP2; heat 49 °C 10 min): ~100%
SHP2 stabilized in solution (band density) (SHP2; heat 52 °C 10 min): 95%
SHP2 stabilized in solution (band density) (SHP2; heat 55 °C 10 min): 70%
SHP2 stabilized in solution (band density) (SHP2; heat 58 °C 10 min): 45%
